Active and inactive are the calls of the source. The calls are words filed in the database; no cut-off is given here.
How the values were obtained:
HepG2 [1] = test: Antiproliferative activity against human HepG2 cells at 2 uM after 96 hrs by MTT assay in presence of ferrous ion; format: functional, cell-based
HepG2 [2] = test: Antiproliferative activity against human HepG2 cells at 2 uM after 96 hrs by MTT assay in presence of cobalt ion; format: functional, cell-based
Bel-7402 [3] = test: Antiproliferative activity against human Bel7402 cells at 2 uM after 96 hrs by MTT assay in presence of 1 uM of ferrous ion; format: functional, cell-based
HepG2 [4] = test: Antiproliferative activity against human HepG2 cells after 96 hrs by MTT assay; format: functional, cell-based; conditions: HepG2, 96 h
NCI-N87 [5] = test: Antiproliferative activity against human NCI-N87 cells at 2 uM after 96 hrs by MTT assay in presence of manganese ion; format: functional, cell-based
HeLa [6] = test: Antiproliferative activity against human HeLa cells after 96 hrs by MTT assay; format: functional, cell-based
MCF7 [7] = test: Antiproliferative activity against human MCF7 cells at 2 uM after 96 hrs by MTT assay in presence of ferrous ion; format: functional, cell-based
HepG2 [8] = test: Antiproliferative activity against human HepG2 cells at 2 uM after 96 hrs by MTT assay in presence of manganese ion; format: functional, cell-based
NCI-N87 [9] = test: Antiproliferative activity against human NCI-N87 cells after 96 hrs by MTT assay; format: functional, cell-based; conditions: NCI-N87, 96 h
A549 [10] = test: Antiproliferative activity against human A549 cells at 2 uM after 96 hrs by MTT assay in presence of 1 uM of ferrous ion; format: functional, cell-based
MCF7 [11] = test: Antiproliferative activity against human MCF7 cells at 2 uM after 96 hrs by MTT assay in presence of cobalt ion; format: functional, cell-based
HT-1080 [12] = test: Antiproliferative activity against human HT1080 cells at 2 uM after 96 hrs by MTT assay in presence of ferrous ion; format: functional, cell-based
Jurkat [13] = test: Antiproliferative activity against human Jurkat cells after 96 hrs by MTT assay; format: functional, cell-based
PANC-1 [14] = test: Antiproliferative activity against human PANC1 cells at 2 uM after 96 hrs by MTT assay in presence of 1 uM of ferrous ion; format: functional, cell-based
A-375 [15] = test: Antiproliferative activity against human A375 cells at 2 uM after 96 hrs by MTT assay in presence of cobalt ion; format: functional, cell-based
HUVEC = test: Antiproliferative activity against human HUVEC cells after 96 hrs by MTT assay; format: cell-based
Jurkat [16] = test: Antiproliferative activity against human Jurkat cells at 2 uM after 96 hrs by MTT assay in presence of ferric ion; format: functional, cell-based
A549 [17] = test: Antiproliferative activity against human A549 cells after 96 hrs by MTT assay; format: functional, cell-based; conditions: A549, 96 h
HeLa [18] = test: Antiproliferative activity against human HeLa cells at 2 uM after 96 hrs by MTT assay in presence of zinc ion; format: functional, cell-based
MCF7 [19] = test: Antiproliferative activity against human MCF7 cells at 2 uM after 96 hrs by MTT assay in presence of ferric ion; format: functional, cell-based
NCI-N87 [20] = test: Antiproliferative activity against human NCI-N87 cells at 2 uM after 96 hrs by MTT assay in presence of cobalt ion; format: functional, cell-based
A-375 [21] = test: Antiproliferative activity against human A375 cells at 2 uM after 96 hrs by MTT assay in presence of zinc ion; format: functional, cell-based
A-375 [22] = test: Antiproliferative activity against human A375 cells at 2 uM after 96 hrs by MTT assay in presence of ferrous ion; format: functional, cell-based
Bel-7402 [23] = test: Antiproliferative activity against human Bel7402 cells at 2 uM after 96 hrs by MTT assay in presence of manganese ion; format: functional, cell-based
HT-1080 [24] = test: Antiproliferative activity against human HT1080 cells at 2 uM after 96 hrs by MTT assay in presence of cobalt ion; format: functional, cell-based
PANC-1 [25] = test: Antiproliferative activity against human PANC1 cells at 2 uM after 96 hrs by MTT assay in presence of ferrous ion; format: functional, cell-based
Bel-7402 [26] = test: Antiproliferative activity against human Bel7402 cells at 2 uM after 96 hrs by MTT assay in presence of ferrous ion; format: functional, cell-based
A549 [27] = test: Antiproliferative activity against human A549 cells at 2 uM after 96 hrs by MTT assay in presence of ferrous ion; format: functional, cell-based
HeLa [28] = test: Antiproliferative activity against human HeLa cells at 2 uM after 96 hrs by MTT assay in presence of ferric ion; format: functional, cell-based
Jurkat [29] = test: Antiproliferative activity against human Jurkat cells at 2 uM after 96 hrs by MTT assay in presence of cobalt ion; format: functional, cell-based
HeLa [30] = test: Antiproliferative activity against human HeLa cells at 2 uM after 96 hrs by MTT assay in presence of ferrous ion; format: functional, cell-based
MCF7 [31] = test: Antiproliferative activity against human MCF7 cells at 2 uM after 96 hrs by MTT assay in presence of zinc ion; format: functional, cell-based
HeLa [32] = test: Antiproliferative activity against human HeLa cells at 2 uM after 96 hrs by MTT assay in presence of cobalt ion; format: functional, cell-based
A549 [33] = test: Antiproliferative activity against human A549 cells at 2 uM after 96 hrs by MTT assay in presence of ferric ion; format: functional, cell-based
HT-1080 [34] = test: Antiproliferative activity against human HT1080 cells at 2 uM after 96 hrs by MTT assay in presence of manganese ion; format: functional, cell-based
HeLa [35] = test: Antiproliferative activity against human HeLa cells at 2 uM after 96 hrs by MTT assay in presence of 1 uM of ferrous ion; format: functional, cell-based
Jurkat [36] = test: Antiproliferative activity against human Jurkat cells at 2 uM after 96 hrs by MTT assay in presence of ferrous ion; format: functional, cell-based
PANC-1 [37] = test: Antiproliferative activity against human PANC1 cells at 2 uM after 96 hrs by MTT assay in presence of manganese ion; format: functional, cell-based
Jurkat [38] = test: Antiproliferative activity against human Jurkat cells at 2 uM after 96 hrs by MTT assay in presence of 1 uM of ferrous ion; format: functional, cell-based
HepG2 [39] = test: Antiproliferative activity against human HepG2 cells at 2 uM after 96 hrs by MTT assay in presence of ferric ion; format: functional, cell-based
A549 [40] = test: Antiproliferative activity against human A549 cells at 2 uM after 96 hrs by MTT assay in presence of manganese ion; format: functional, cell-based
Jurkat [41] = test: Antiproliferative activity against human Jurkat cells at 2 uM after 96 hrs by MTT assay in presence of manganese ion; format: functional, cell-based
Bel-7402 [42] = test: Antiproliferative activity against human Bel7402 cells after 96 hrs by MTT assay; format: functional, cell-based; conditions: Bel-7402, 96 h
[43] = Metal chelating activity of the compound assessed as cobalt complex formation in doble-distiled water by UV-vis spectrometry; format: functional
A-375 [44] = test: Antiproliferative activity against human A375 cells at 2 uM after 96 hrs by MTT assay in presence of ferric ion; format: functional, cell-based
Bel-7402 [45] = test: Antiproliferative activity against human Bel7402 cells at 2 uM after 96 hrs by MTT assay in presence of zinc ion; format: functional, cell-based
HT-1080 [46] = test: Antiproliferative activity against human HT1080 cells after 96 hrs by MTT assay; format: functional, cell-based; conditions: HT-1080, 96 h
PANC-1 [47] = test: Antiproliferative activity against human PANC1 cells at 2 uM after 96 hrs by MTT assay in presence of ferric ion; format: functional, cell-based
NCI-N87 [48] = test: Antiproliferative activity against human NCI-N87 cells at 2 uM after 96 hrs by MTT assay in presence of ferric ion; format: functional, cell-based

Cc1cc2c(cc(O)c1=O)[C@@]13CCCC(C)(C)[C@@H]1C[C@@H]2OC3 [MILTIPOLONE]
Activity (HepG2 [1]): inactive
Activity (HepG2 [2]): Active
Activity (Bel-7402 [3]): Active
IC50 (HepG2 [4]): 2000 nM
Activity (NCI-N87 [5]): Active
IC50 (HeLa [6]): 1440 nM
Activity (MCF7 [7]): inactive
Activity (HepG2 [8]): Active
IC50 (NCI-N87 [9]): 1600 nM
Activity (A549 [10]): inactive
Activity (MCF7 [11]): Active
Activity (HT-1080 [12]): inactive
IC50 (Jurkat [13]): 1400 nM
Activity (PANC-1 [14]): inactive
Activity (A-375 [15]): Active
IC50 (HUVEC): 20 µM
Activity (Jurkat [16]): Active
IC50 (A549 [17]): 1920 nM
Activity (HeLa [18]): Active
Activity (MCF7 [19]): Active
Activity (NCI-N87 [20]): Active
Activity (A-375 [21]): Active
Activity (A-375 [22]): inactive
Activity (Bel-7402 [23]): Active
Activity (HT-1080 [24]): Active
Activity (PANC-1 [25]): inactive
Activity (Bel-7402 [26]): inactive
Activity (A549 [27]): inactive
Activity (HeLa [28]): Active
Activity (Jurkat [29]): Active
Activity (HeLa [30]): inactive
Activity (MCF7 [31]): Active
Activity (HeLa [32]): Active
Activity (A549 [33]): Active
Activity (HT-1080 [34]): Active
Activity (HeLa [35]): inactive
Activity (Jurkat [36]): inactive
Activity (PANC-1 [37]): Active
Activity (Jurkat [38]): inactive
Activity (HepG2 [39]): Active
Activity (A549 [40]): Active
Activity (Jurkat [41]): Active
IC50 (Bel-7402 [42]): 900 nM
Activity [43]: Active
Activity (A-375 [44]): Active
Activity (Bel-7402 [45]): Active
IC50 (HT-1080 [46]): 1360 nM
Activity (PANC-1 [47]): Active
Activity (NCI-N87 [48]): Active

From ChEMBL document CHEMBL1759870, “Identification, structural properties and chelating capacity of miltipolone as a broad-spectrum inhibitor to cancer cells” (Eur J Med Chem, 2011)
